Key:
NKCC = settings: cited from earlier work
[1] = design: method as in PMID 33016969; settings: cited from earlier work
[2] = system: 60 cancer cell line panel; assay: NCI 60 cancer cell line panel testing; type: cell-based
Text: Cell lines are grouped by cancer type [origin]. Determination of the concentration that reduced by 50 % the
Log10 differences are represented by the bars. If a cell line is more sensitive , the bar is on the right , if it is less
sensitive, the bar is on the left. Similar data are represen ted for the 50 % lethal concentration [LC 50] of each
(1 picture or pasted object on this page, not shown here)

[3] = target: chymotrypsin-like activity of the proteasome (Homo sapiens, UniProt P28074); assay: Cellular proteasomal chymotrypsin-like activity; type: cell-based; settings: 13 at 1 µM, 6 h of treatment, both SKMEL-28 and U373
Procedure: The chemotrypsin-like, trypsin-like and caspase-like activities of the proteasome were evaluated in cells with the G8660, G8861 and G8761 kits respectively according to the manufacturer’s instructions (Promega, USA). Briefly, the assays are based on the use of short amino-acid sequences coupled with luciferin and that can be specifically cleaved by each catalytic unit of the proteasomal complex. For this purpose, cells were seeded in 96 well plates 24 h before their treatment with 1 (5 µM), 13 (1 µM) for 6 h or with the positive control MG132 (1 µM) for 24 h. At the end of the treatments, cells were washed three times with PBS and permeabilized with digitonin (0.5 mg/mL; 50 µL per well) under shaking for 10 min. Then, 50 µL of a mixture of the substrate of interest and luciferase were added for 15 min under slow shaking. Luminescence levels quantified with the Active-Glo LR-100 luminometer (DSLabs, Suisse) were normalized according the number of viable cells evaluated in parallel in the same conditions by means of MTT assay.

U373 cells = assay: Annexin-V/propidium iodide staining by flow cytometry; type: cell-based, human; settings: 24 h of treatment
Procedure: (§1) Cell death induced by compounds 1 and 13 was evaluated by means of the double annexin-V/propidium iodide staining by flow cytometry with the FITC Annexin V apoptosis detection kit from BD Pharmingen (USA) according to the manufacturer’s instructions. Briefly, cells were cultured and treated in 25 cm^2 flasks. At the end of the treatment, all cells (adherent and floating cells) were collected, washed and resuspended at 10^6 cells/mL. 100 µL of the cell suspension were stained with 5 µL of FITC-annexin-V and 5 µL of propidium iodide for 15 min at rt in the dark. 400 µL of buffer were then added before data acquisition of 10,000 events per sample (Gallios, Beckman Coulter, Belgium). Caspase activation is usually evaluated to confirm or not the apoptotic feature of the cell death induced. For this purpose, we used the caspase-3, -8 and 9 multiplex assay (Ab219915, Abcam, UK) following manufacters’ instructions. In this assay, cells were exposed to short peptidic sequences linked to different fluorochromes and that could be specifically cleaved by each of these caspases. This assay thereby allowed simultaneous evaluation of the three caspase activities thanks to the quantification of the three fluorophores released in a SynergyMX plate fluorimeter (Biotek, USA).

caspase-3 = assay: Caspase multiplex assay, caspase-3 in SKMEL-28; type: cell-based, human; settings: SKMEL-28 cells, 15 h of treatment
Procedure: as §1

caspase-8 = assay: Caspase multiplex assay, caspase-8 in SKMEL-28; type: cell-based, human; settings: SKMEL-28 cells, 15 h of treatment
Procedure: as §1

caspase-3, -8 and 9 = assay: Caspase-3, -8 and -9 multiplex assay in U373; type: cell-based, human; settings: U373 cells, until 24 h of treatment
Procedure: as §1

SKMEL-28 and U373 cells = assay: Reversibility assay; type: cell-based, human; settings: after 6 h of treatment, both cell lines
Procedure: The reversibility of the effects induced by compounds 13 was evaluated through qualitative microscopic observation of the cell cultures (morphology and confluence of the cell culture) over time after having been exposed or not to the compound for 1, 3 or 6 h. Negative control corresponds to untreated cells while positive control corresponds to cells treated with 13 continuously over the whole experiment. Briefly, 6 × 10^4 cells per well were seeded in 6 well plates and incubated for 24 h before their use. Culture medium was then replaced by fresh medium with or without compound 13. After 1, 3 or 6 h of treatment, cells were washed and the culture medium was renewed. Pictures were taken at different time points starting at t = 0 when the treatment was applied to the cells, 6 h, 24 h and 72 h thereafter.

Sequence of chymotrypsin-like activity of the proteasome (P28074 60-263): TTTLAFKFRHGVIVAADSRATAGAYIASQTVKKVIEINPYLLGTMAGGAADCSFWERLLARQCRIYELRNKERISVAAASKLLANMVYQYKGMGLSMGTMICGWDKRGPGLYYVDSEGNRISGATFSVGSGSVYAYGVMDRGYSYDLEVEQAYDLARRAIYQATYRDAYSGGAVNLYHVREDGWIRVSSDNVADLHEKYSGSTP

For `C=C[C@]1(C)C=C2C(=O)[C@@]3(O)OC(=O)[C@@]4(CCCC(C)(C)[C@H]34)[C@@]2(O)CC1` [Compound 1, sphaeropsidin A, reference compound], the “concentration inhibiting NKCC activity” value (NKCC) is given as “low micromolar” and the “stability in physiological medium” value [1] is given as “instability”.
Work on `CC1(C=CCCCc2ccc3ccc4cccc5ccc2c3c45)C=C2C(=O)C3(O)OC(=O)C4(CCCC(C)(C)C34)C2(O)CC1` (stereo not shown) [Compound 13] yielded a CC50 ([2]; NCI 60 cancer cell line panel, read-out: global mean LC50) of 1500 nM, a GI50 ([2]; NCI, 48 h of culture, read-out: mean GI50 against the 60 cancer cell line panel) of 190 nM and an inhibition at 1 µM [3] of over 60%. For the same compound, the “cells positive to annexin-V” value (U373 cells) was “more than 60%”, the caspase-3 activity (caspase-3) was “markedly increased” and the caspase-8 activity (caspase-8) was “markedly increased”. The caspase activation (caspase-3, -8 and 9) was “no caspase activation could be detected” and the reversibility of effects (SKMEL-28 and U373 cells) was “irreversible”.
